Experimental data taken from patent publication US20230149326A1, “PHARMACEUTICAL COMPOSITION FOR PREVENTING OR TREATING MUSCULAR WEAKNESS-RELATED DISEASES COMPRISING ALVERINE, 4-HYDROXY ALVERINE, DERIVATIVE THEREOF, OR PHARMACEUTICALLY ACCEPTABLE SALT THEREOF” (AVENTI INC., priority 2020, published 2023).
Where a name gives a salt, the structure may show the parent alone.

Legend:
Format in all cases: in vivo
C57BL/6 male mice [1] = test: Muscle weight measurement, normal mouse
Method: In order to confirm the muscle strength enhancement effect of alverine citrate, after administering alverine citrate to a mouse, the mouse was tested for motor functions such as grip strength, running, balance coordination, and the like. After motor function tests, muscle weight was measured. In particular, each of 10 week-old C57BL/6 male mice was dosed orally with 200 μL of alverine citrate for 4 weeks, at a daily dose of 17 mg/kg/day (AC-L), 50 mg/kg/day (AC-M) or 150 mg/kg/day (AC-H). This group of mice was set as the experimental group (FIG. 3). The 10 week-old C57BL/6 male mice were purchased from Daehan BioLink. For muscle weight measurement, gastrocnemius (GA) tibialis anterior (TA) muscles in the hindlimb of the mice in each group were removed and weighed.

C57BL/6 male mice [2] = test: Running ability test (treadmill), normal mouse; conditions: oral
Method: In order to confirm the muscle strength enhancement effect of alverine citrate, after administering alverine citrate to a mouse, the mouse was tested for motor functions such as grip strength, running, balance coordination, and the like. After motor function tests, muscle weight was measured. In particular, each of 10 week-old C57BL/6 male mice was dosed orally with 200 μL of alverine citrate for 4 weeks, at a daily dose of 17 mg/kg/day (AC-L), 50 mg/kg/day (AC-M) or 150 mg/kg/day (AC-H). This group of mice was set as the experimental group (FIG. 3). The 10 week-old C57BL/6 male mice were purchased from Daehan BioLink. Running ability was measured using a treadmill designed specific for this experiment. First, aversive stimuli were provided by letting electric stimuli flow at the starting point. Before the measurement, the mice were acclimatized at 8 m/min for 10 minutes. The running time was recorded by allowing mice in each group to run in separate lanes until exhaustion. Exhaustion was defined such that when the mouse stays outside the lanes for 10 seconds or more without running, the mouse was determined to be exhausted and the time was recorded. It was not possible to repeat this experiment on the same mouse. The mouse was placed on the treadmill and the test was started at 8 rpm, and the speed was accelerated by 2 rpm every 10 minutes to a maximum speed of 20 rpm. […]

sarcopenia-induced mice [3] = test: Muscle weight measurement, sarcopenia-induced mouse; conditions: hindlimb-immobilized mice; oral 17, 50, 150 mg/kg/day
Method: In order to confirm a muscle strength enhancement effect of alverine citrate, sarcopenia-induced mice were administered with alverine citrate and tested for running ability. After the treadmill running test, muscle weight was measured. In particular, the hindlimb of 10 week-old C57BL/6 male mice was immobilized using a surgical stapler (Autosuture Royal 35W stapler). The staples were removed after 5 days and the mice were allowed to remobilize for 3 days. After that, running ability was measured. The mice were dosed orally with 200 μL of alverine citrate per mice at a dose of 17 mg/kg/day (AC-L), 50 mg/kg/day (AC-M) or 150 mg/kg/day (AC-H), and these mice were set as the experimental group. Untreated sarcopenia-induced mice were set as the control group (FIG. 8). The 10 week-old C57BL/6 male mice were purchased from Daehan BioLink. For muscle weight measurement, the GA and TA muscles in the hindlimb of the mice in each group were removed and weighed.

sarcopenia-induced mice [4] = test: Running ability test, sarcopenia-induced mouse; conditions: hindlimb-immobilized mice; oral 17, 50, 150 mg/kg/day
Method: Running ability was measured using a treadmill designed specific for this experiment. First, aversive stimuli were provided by letting electric stimuli flow at the starting point. Before the measurement, the mice were acclimatized at 8 m/min for 10 minutes. The running time was recorded by allowing mice in each group to run in separate lanes until exhaustion. Exhaustion was defined such that when the mouse stays outside the lanes for 10 seconds or more without running, the mouse was determined to be exhausted and the time was recorded. It was not possible to repeat this experiment on the same mouse. The mouse was placed on the treadmill and the test was started at 8 rpm, and the speed was accelerated by 2 rpm every 10 minutes to a maximum speed of 20 rpm. The slope of the lane started from a zero-degree incline and then was elevated to a five-degree incline after 30 min from the start. In order to confirm a muscle strength enhancement effect of alverine citrate, sarcopenia-induced mice were administered with alverine citrate and tested for running ability. After the treadmill running test, muscle weight was measured. In particular, the hindlimb of 10 week-old C57BL/6 male mice was immobilized using a surgical stapler (Autosuture Royal 35W stapler). […] After that, running ability was measured. […] Running ability was measured by the same method as in Example 2.2.

SMILES: CCN(CCCc1ccccc1)CCCc1ccccc1 [alverine citrate]
- muscle weight of GA and TA, dependence on dose (C57BL/6 male mice [1]; as the administration dose increases (17, 50, 150 mg/kg/day)): also increased
- muscle weight of GA and TA (C57BL/6 male mice [1]; oral, 4 weeks, 17, 50 or 150 mg/kg/day, compared with normal group): increased compared to the normal group mouse
- running time (C57BL/6 male mice [2]; 4 weeks, 150 mg/kg/day): significant increase in the running time
- running time (C57BL/6 male mice [2]; 4 weeks, 17, 50 or 150 mg/kg/day, compared with normal group): increased compared to the normal group mouse
- GA and TA muscle weights, dependence on dose (sarcopenia-induced mice [3]): also increased
- running time, dependence on dose (sarcopenia-induced mice [4]): increased proportionally with the dose concentration
